In paper PMC6920806, “Synthesis of β-D-galactopyranoside-Presenting Glycoclusters, Investigation of Their Interactions with Pseudomonas aeruginosa Lectin A (PA-IL) and Evaluation of Their Anti-Adhesion Potential” (Biomolecules, 2019):
Converted amounts (≈) assume the structure as drawn. “Also recorded” adds a separate entry of the source. Read-outs that look alike come from different tables or passages of the source.

Experiments:
lectin PA-IL [1] = target: T1, lectin PA-IL (Pseudomonas aeruginosa, UniProt Q05097); assay: Hemagglutination inhibition assay (HIA) with microscope detection; format: biochemical; conditions: for Potency (MIC of standard/MIC of inhibitor) / β (Potency/Valency): HIA, standard D-galactose; for MIC (minimal inhibitory concentration): inhibition of hemagglutination caused by PA-IL (0.125 mg mL−1), papain-treated red blood cells B+
T1 construct: made in house; host or cells: Escherichia coli BL21(DE3)
T1 sequence (Q05097 2-122): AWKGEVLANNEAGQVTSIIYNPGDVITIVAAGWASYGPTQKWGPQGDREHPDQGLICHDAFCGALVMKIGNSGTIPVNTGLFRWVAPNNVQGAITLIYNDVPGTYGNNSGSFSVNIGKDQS
Protocol: PA-IL was dissolved in the buffer with calcium ions suitable for the activity of the lectin (20 mM Tris/HCl, 150 mM NaCl, 5 mM CaCl2, pH = 7.5) to the concentration 0.25 mg mL^−1. Lectin was mixed with carbohydrate inhibitors serially diluted in the buffer in a 5 µL:5 µL ratio. Therefore, the final (working) concentration of the lectin was 0.125 mg mL^−1. A total of 10 µL of 20% papain-treated, azid-stabilized red blood cells B^+ in the buffer was then added, and the mixture was thoroughly mixed and incubated for 5 min at room temperature. After incubation, the mixture was again mixed, transferred to a microscope slide, and examined. The examination was conducted using the Levenhuk D2L NG Digital Microscope (Levenhuk, Tampa, FL, USA). Images were obtained with a Levenhuk D2L digital camera (Levenhuk, Tampa, FL, USA) using the software ToupView for Windows (Version 3.7, Levenhuk, Tampa, FL, USA). The positive (experiment without inhibitor) and negative control (experiment without lectin) were prepared and processed in the same way using the appropriate volume of dissolving buffer instead of the omitted components. The minimal inhibitory concentration (MIC) of the inhibitor able to inhibit hemagglutination was determined and compared with the standard (D-galactose) and the potency of the inhibitor was calculated (MIC of the standard/MIC of the inhibitor).

lectin PA-IL [2] = target: T1, lectin PA-IL; assay: SPR inhibition of PA-IL binding to immobilized D-galactosides; conditions: for Potency (IC50 of standard/IC50 of inhibitor) / β (Potency/Valency): standard D-galactose
Protocol: Surface plasmon resonance (SPR) experiments were performed on a BIAcore T200 instrument (GE Healthcare, Chicago, IL, USA) at 25 °C, using HBST running buffer (10 mM HEPES, 150 mM NaCl, 0.5 mM CaCl2, 0.05% Tween 20, pH = 7). A CM5 sensor chip (GE Healthcare, Chicago, IL, USA) covered with a carboxymethylated dextran matrix was used for ligand immobilization. The sensor chip surface was activated with N-ethyl-N-(3-dimethylaminopropyl)carbodiimide/N-hydroxysuccinimide solution and then coated with streptavidin (Sigma-Aldrich, St. Louis, MO, USA) in 10 mM acetate pH = 5.0 according to the manufacturer’s standard protocol to a final response of 7000 RU. Unreacted groups were blocked with 1 M ethanolamine-HCl, pH = 8.5. 0.5 mM biotinylated carbohydrate (1:1 mixture of biotin-α-D-galactoside and biotin-β-D-galactoside for measuring channel and α-L-fucoside for blank channel, all Lectinity, Moskow, Russia) was injected into a particular channel at a flow rate of 5 μL min^−1.
In the experimental setup, SPR inhibition measurements were carried out simultaneously on both measuring and blank channels at a flow rate of 5 µL min^−1. […] The response of the blank channel was subtracted from the response of lectin bound to the galactose-modified surface at equilibrium and plotted against the concentration of inhibitor in order to determine IC50 (concentration of inhibitor resulting in 50% inhibition of binding). As IC50 is not a constant and depends on the experimental set-up, a parameter called potency was used for characterization. The potency of a tested inhibitor is the ratio of IC50 of a chosen standard inhibitor (in this case, D-galactose) and the inhibitor in question. Pure lectin PA-IL was used as a control (0% inhibition).

[3] = test system: Pseudomonas aeruginosa CCM 3955 (ATCC 27853) cells; assay: Pseudomonas aeruginosa cross-linking assay with microscope detection; format: cell-based; conditions: for cross-linking of whole P. aeruginosa cells (cell aggregates): concentrations up to 5 mM, 10 min, microscope 100x
Protocol: Pseudomonas aeruginosa CCM 3955 (ATCC 27853) cells were inoculated from stock cells stored at −80 °C into a standard LB medium and were grown at 37 °C overnight under orbital shaking. The bacterial culture was kept in the fridge until further use. Prior to the experiment, bacterial cells were centrifuged at 4300× g (Eppendorf centrifuge MiniSpin, Eppendorf, Germany) for 2 min and subsequently washed three times with PBS buffer (137 mM NaCl, 2.7 mM KCl, 10 mM Na2HPO4, 1.8 mM KH2PO4). Bacterial cells were then diluted in PBS to an optical density OD600 = 1.5, which was checked using a spectrophotometer (WPA CO8000 Biovawe Cell Density Metr, Biochrom Ltd., Cambridge, UK). D-galactopyranoside-presenting inhibitors were diluted in ultrapure water to the concentration of 100 mM. Bacterial cells were mixed in a 9:1 ratio with the 10x concentrated selected compounds and gently mixed. The mixture was incubated at room temperature for 10 min and thoroughly mixed again. An amount of 5 µL of the mixture was transferred onto a microscope slide and observed under 100x magnification using an optical microscope (Olympus IX81F-3/IX81S1F-3, Olympus, Tokyo, Japan). As a negative control, bacterial culture mixed with ultrapure water in 9:1 ratio was used. The images were obtained using a phase contrast method and the background of the images was subtracted in GIMP.

[4] = read-out: IC50 (concentration of inhibitor resulting in 50% inhibition of binding), SPR, PA-IL 45 µM, galactoside-modified chip, 25 °C

Structure (SMILES)	Potency (MIC of standard/MIC of inhibitor) (lectin PA-IL [1])	β (Potency/Valency) (lectin PA-IL [1])	MIC (minimal inhibitory concentration) (lectin PA-IL [1]) [µM]	IC50 (lectin PA-IL [2]; [4]) [µM]	cross-linking of whole P. aeruginosa cells (cell aggregates) [3]	Potency (IC50 of standard/IC50 of inhibitor) (lectin PA-IL [2]; SPR)	β (Potency/Valency) (lectin PA-IL [2]; SPR)	concentration at which aggregates distinguishable from the negative control were still observed [3] [mM]	IC50 (lectin PA-IL [2]) [µM]
OC[C@H]1O[C@@H](OCc2cn(CCn3cc(COCC(COCc4cn(CCn5cc(CO[C@@H]6O[C@H](CO)[C@H](O)[C@H](O)[C@H]6O)nn5)nn4)(COCc4cn(CCn5cc(CO[C@@H]6O[C@H](CO)[C@H](O)[C@H](O)[C@H]6O)nn5)nn4)COCc4cn(CCn5cc(CO[C@@H]6O[C@H](CO)[C@H](O)[C@H](O)[C@H]6O)nn5)nn4)nn3)nn2)[C@H](O)[C@@H](O)[C@H]1O [Compound 13]	128	32	48.83 (≈ 78.6 µg/mL)	4.3	no aggregates were observed; also recorded: no clearly distinguishable aggregates were detected				
COC(=O)c1cc(OCc2cn(CCOCCOCCOCCn3cc(CO[C@@H]4O[C@H](CO)[C@H](O)[C@H](O)[C@H]4O)nn3)nn2)c(OCc2cn(CCOCCOCCOCCn3cc(CO[C@@H]4O[C@H](CO)[C@H](O)[C@H](O)[C@H]4O)nn3)nn2)c(OCc2cn(CCOCCOCCOCCn3cc(CO[C@@H]4O[C@H](CO)[C@H](O)[C@H](O)[C@H]4O)nn3)nn2)c1 [Compound 4]	128	42.7	48.83 (≈ 82.3 µg/mL)	6.8	Formation of aggregates was observed	27.5	9.2		
OC[C@H]1O[C@@H](OCc2cn(CCOCCOCCOCCn3cc(COCC(COCc4cn(CCOCCOCCOCCn5cc(CO[C@@H]6O[C@H](CO)[C@H](O)[C@H](O)[C@H]6O)nn5)nn4)(COCc4cn(CCOCCOCCOCCn5cc(CO[C@@H]6O[C@H](CO)[C@H](O)[C@H](O)[C@H]6O)nn5)nn4)COCc4cn(CCOCCOCCOCCn5cc(CO[C@@H]6O[C@H](CO)[C@H](O)[C@H](O)[C@H]6O)nn5)nn4)nn3)nn2)[C@H](O)[C@@H](O)[C@H]1O [Compound 7]	256	64	24.41 (≈ 52.2 µg/mL)	7.3	highest cross-linking activity; also recorded: Formation of aggregates was observed	25.6	6.4	1.25	
COC(=O)c1cc(OCc2cn(CCn3cc(CO[C@@H]4O[C@H](CO)[C@H](O)[C@H](O)[C@H]4O)nn3)nn2)c(OCc2cn(CCn3cc(CO[C@@H]4O[C@H](CO)[C@H](O)[C@H](O)[C@H]4O)nn3)nn2)c(OCc2cn(CCn3cc(CO[C@@H]4O[C@H](CO)[C@H](O)[C@H](O)[C@H]4O)nn3)nn2)c1 [Compound 10]	64	21.3	97.66 (≈ 126 µg/mL)		Formation of aggregates was observed	25.3	8.4		7.4
